Results published in patent publication US6716829B2, “Aldosterone antagonist and cyclooxygenase-2 inhibitor combination therapy to prevent or treat inflammation-related cardiovascular disorders” (Pharmacia Corporation, priority 2000, dated 2004).
Values joined by “and” are separate entries in the source; they are usually repeats but may differ in a detail not shown here. Equal entries are not always repeated.

Experiment: Assay C: body weight, left and right ventricle weight, tibia length (myocardial hypertrophy)
Format: in vivo, Male Sprague-Dawley rats
Conditions: for Body weight: aldosterone + salt at days 7, 14 and 30 vs vehicle + salt, eplerenone effect at day 30; for Ventricular hypertrophy (absolute ventricular weights, ventricular weight to tibia length ratios): 7 to 30 days
Description: The procedure of Assay B was expanded upon in a further study. […] Myocardial tissue from animals in each treatment group was examined after 7, 14, or 30 days of treatment.
Male Sprague-Dawley rats, weighing 230 to 250 g, (Harlan Sprague-Dawley Industries, Indianapolis, IN) were housed in a room 12-hours light/12-hours dark daily cycle at an ambient temperature of 22±1° C. (n=96). Animals were allowed one week to adjust after arrival and had free access to TEKLAD 22/5 rodent diet (Harlan TEKLAD, Madison, Wis.) and tap water until the initiation of the experiment.
Potassium chloride supplementation was added to the saline solution in order to prevent the potential hypokalemia associated with aldosterone excess.
At the time of the surgery, an Alzet 2002 osmotic minipump (Alza Corp., Palo Alto, Calif.) containing either vehicle (9% ethanol/87% propylene glycol/4% dH2O) or 1.0 mg/mL d-aldosterone (Sigma Chemical, St. Louis, Mo.) was inserted subcutaneously at the nape of the neck. Aldosterone was administered at a dose of 0.75 µg/hour. […] Animals were sacrificed from each group (n=8-13) after 7, 14, or 30 days of treatment.
Animals to be sacrificed after 7 or 14 days of treatment were uninephrectomized and implanted with an Alzet minipump. Animals treated for 30 days were uninephrectomized, fitted for Alzet minipumps, and implanted with radio telemetry units (model #TA11PA-C40, Data Sciences Inc., St. Paul, Minn.) according to the following procedure. Animals were anesthetized with 5% isoflurane (SOLVAY Animal Health Inc., Mendota Heights, Minn.), which was delivered in O2 using a VMS anesthesia instrument (Matrix Medical, Inc., Orchard Park, N.Y.). Anesthesia was maintained with 1-2% isoflurane throughout the surgical procedure. The surgery site was clipped, scrubbed with nolvasan, and sprayed with betadine. A rostral-caudal incision was made through the skin from the base of the rib cage to the pubic region using a #11 scalpel blade. A second incision was made through the muscles of the abdominal wall to expose the peritoneal cavity. The […], renal artery and vein of the left kidney were isolated, tied off with 4-0 silk, and the kidney excised and discarded. Organs were carefully displaced with tissue retractors in order to expose the abdominal aorta. A 1.5 cm segment just rostral to the bifurcation of the abdominal aorta into the iliac arteries was cleared of excessive connective tissue and 4-0 silk was used to make an anchor adjacent to the aorta. A microvascular clip was then placed at both ends of the cleaned region to stop excessive blood flow. Using a bent, 21 gauge needle, the abdominal aorta was penetrated. The cannula of the radio telemetry unit was inserted and stabilized in the aorta using the 4-0 silk anchor. Organs were repositioned and the telemetry unit was placed over the organs. Using a non-interrupted suture pattern with 4-0 silk, the abdominal wall was closed, and the skin was subsequently closed using a 4-0 silk in an interrupted suture pattern. Animals were injected around the sutures with 100 μL of the anesthetic Marcaine HCl (Sanofi Winthrop Pharmaceuticals, New York, N.Y.) and given an injection (i.m.) of the antibiotic Mandol (Eli Lilly & Co., Indianapolis, Ind.). Post-operative care included monitoring the animals on a heating pad during recovery from anesthesia until sternal recumbency was reestablished. Animals were monitored daily for signs of distress and infection at the surgical site. Animals displaying continued discomfort after surgery were treated with 0.1-0.5 mg/kg, s.c. Buphrenorphine (Rickett & Colman Pharmaceuticals, Inc. Richmond, Va.). Animals were then placed on tap water and TEKLAD 22/5 rodent diet (Harlan TEKLAD, Madison, Wis.).

[1] = 14-day protocol, individual rats and group Mean, listed as Aldosterone + salt
[2] = 14-day protocol, individual rats and group Mean, listed as Aldosterone + salt, mean
[3] = 30-day protocol, individual rats and group Mean, listed as Aldosterone + salt
[4] = 30-day protocol, individual rats and group Mean, listed as Aldosterone + salt, group mean
[5] = aldosterone + salt, eplerenone 100 mg/kg/day
[6] = mean ± SEM after 7 days of treatment, aldosterone + salt, eplerenone 100 mg/kg/day
[7] = mean ± SEM after 14 days of treatment, aldosterone + salt, eplerenone 100 mg/kg/day
[8] = mean ± SEM after 30 days of treatment, eplerenone dose 100 mg/kg/day
[9] = 14-day protocol, individual rats and group Mean, listed as Eplerenone + aldosterone + salt
[10] = 14-day protocol, individual rats and group Mean, listed as Eplerenone + aldosterone + salt, mean
[11] = individual rats and group mean, 7 days of treatment, aldosterone + salt, eplerenone 100 mg/kg/day
[12] = individual rats and group mean, 7 days of treatment, aldosterone + salt, eplerenone 100 mg/kg/day, group mean

C[C@]12CCC(=O)C=C1CC[C@@H]1[C@@H]2[C@@H](O)C[C@]2(C=O)[C@@H](C(=O)CO)CC[C@@H]12 [Aldosterone]
Left Ventricle Weight [1]: 846 mg and 784 mg and 912 mg and 720 mg and 923 mg and 854 mg and 894 mg and 859 mg and 750 mg and 818 mg and 746 mg and 700 mg
Left Ventricle Weight/ Tibia Length [1]: 223 mg/cm and 206 mg/cm and 234 mg/cm and 189 mg/cm and 237 mg/cm and 225 mg/cm and 229 mg/cm and 220 mg/cm and 197 mg/cm and 215 mg/cm and 202 mg/cm and 194 mg/cm
Right Ventricle Weight [1]: 194 mg and 189 mg and 208 mg and 174 mg and 217 mg and 186 mg and 216 mg and 171 mg and 153 mg and 195 mg and 172 mg
Right Ventricle Weight/ Tibia Length [1]: 51 mg/cm and 50 mg/cm and 53 mg/cm (3×) and 56 mg/cm and 49 mg/cm and 55 mg/cm and 44 mg/cm and 40 mg/cm and 48 mg/cm
Left Ventricle Weight [2]: 817 mg
Left Ventricle Weight/ Tibia Length [2]: 214 mg/cm
Right Ventricle Weight [2]: 189 mg
Right Ventricle Weight/ Tibia Length [2]: 50 mg/cm
Left Ventricle Weight [3]: 934 mg and 726 mg and 963 mg and 942 mg and 1030 mg and 837 mg and 962 mg and 873 mg and 919 mg
Left Ventricle Weight/ Tibia Length [3]: 234 mg/cm and 191 mg/cm and 247 mg/cm (2×) and 242 mg/cm (2×) and 264 mg/cm and 215 mg/cm and 218 mg/cm
Right Ventricle Weight [3]: 196 mg and 148 mg and 215 mg and 176 mg and 224 mg and 173 mg and 220 mg and 187 mg and 185 mg
Right Ventricle Weight/ Tibia Length [3]: 49 mg/cm (2×) and 39 mg/cm and 55 mg/cm and 45 mg/cm and 57 mg/cm and 44 mg/cm and 56 mg/cm and 47 mg/cm
Left Ventricle Weight [4]: 910 mg
Left Ventricle Weight/ Tibia Length [4]: 233 mg/cm
Right Ventricle Weight [4]: 192 mg
Right Ventricle Weight/ Tibia Length [4]: 49 mg/cm
Body weight: significantly lower
Ventricular hypertrophy (absolute ventricular weights, ventricular weight to tibia length ratios) [5]: Significant left and right ventricular hypertrophy
Final Body Weight [6]: 277 ± 5 g
Left Ventricle Weight [6]: 736 ± 25 mg
Left Ventricle Weight/ Tibia Length [6]: 194 ± 6 mg/cm
Right Ventricle Weight [6]: 183 ± 7 mg
Right Ventricle Weight/ Tibia Length [6]: 48 ± 2 mg/cm
Final Body Weight [7]: 270 ± 11 g
Left Ventricle Weight [7]: 817 ± 22 mg
Left Ventricle Weight/ Tibia Length [7]: 214 ± 5 mg/cm
Right Ventricle Weight [7]: 189 ± 5 mg
Right Ventricle Weight/ Tibia Length [7]: 50 ± 1 mg/cm
Final Body Weight [8]: 272 ± 10 g
Left Ventricle Weight [8]: 910 ± 29 mg
Left Ventricle Weight/ Tibia Length [8]: 233 ± 7 mg/cm
Right Ventricle Weight [8]: 192 ± 8 mg
Right Ventricle Weight/ Tibia Length [8]: 49 ± 2 mg/cm

COC(=O)[C@@H]1CC2=CC(=O)CC[C@]2(C)[C@@]23O[C@@H]2C[C@@]2(C)[C@@H](CC[C@@]24CCC(=O)O4)[C@H]13 [Eplerenone]
Left Ventricle Weight [9]: 804 mg and 898 mg and 789 mg and 851 mg and 668 mg and 833 mg and 886 mg and 756 mg and 751 mg and 795 mg and 915 mg
Left Ventricle Weight/ Tibia Length [9]: 212 mg/cm and 236 mg/cm and 221 mg/cm and 176 mg/cm and 225 mg/cm and 233 mg/cm and 199 mg/cm and 198 mg/cm and 215 mg/cm and 235 mg/cm
Right Ventricle Weight [9]: 182 mg and 188 mg (2×) and 176 mg and 189 mg and 139 mg and 371 mg and 193 mg and 158 mg and 155 mg and 225 mg
Right Ventricle Weight/ Tibia Length [9]: 48 mg/cm and 49 mg/cm (3×) and 46 mg/cm and 37 mg/cm and 100 mg/cm and 51 mg/cm and 42 mg/cm (2×) and 58 mg/cm
Left Ventricle Weight [10]: 813 mg
Left Ventricle Weight/ Tibia Length [10]: 214 mg/cm
Right Ventricle Weight [10]: 197 mg
Right Ventricle Weight/ Tibia Length [10]: 52 mg/cm
Body weight: significantly attenuated
Ventricular hypertrophy (absolute ventricular weights, ventricular weight to tibia length ratios) [5]: did not impact
Left Ventricle Weight [11]: 859 mg and 712 mg and 618 mg and 658 mg and 754 mg and 733 mg and 726 mg and 696 mg and 700 mg and 688 mg
Left Ventricle Weight/ Tibia Length [11]: 220 mg/cm and 187 mg/cm and 167 mg/cm and 173 mg/cm and 198 mg/cm and 193 mg/cm and 191 mg/cm and 183 mg/cm and 184 mg/cm and 181 mg/cm
Right Ventricle Weight [11]: 216 mg and 181 mg (2×) and 154 mg and 174 mg and 192 mg and 171 mg and 190 mg and 170 mg and 187 mg
Right Ventricle Weight/ Tibia Length [11]: 55 mg/cm and 48 mg/cm (2×) and 42 mg/cm and 46 mg/cm and 51 mg/cm and 45 mg/cm (2×) and 50 mg/cm and 49 mg/cm
Left Ventricle Weight [12]: 714 mg
Left Ventricle Weight/ Tibia Length [12]: 188 mg/cm
Right Ventricle Weight [12]: 182 mg
Right Ventricle Weight/ Tibia Length [12]: 48 mg/cm
Final Body Weight [6]: 287 ± 4 g
Left Ventricle Weight [6]: 714 ± 20 mg
Left Ventricle Weight/ Tibia Length [6]: 188 ± 5 mg/cm
Right Ventricle Weight [6]: 182 ± 5 mg
Right Ventricle Weight/ Tibia Length [6]: 48 ± 1 mg/cm
Final Body Weight [7]: 283 ± 6 g
Left Ventricle Weight [7]: 813 ± 22 mg
Left Ventricle Weight/ Tibia Length [7]: 214 ± 6 mg/cm
Right Ventricle Weight [7]: 197 ± 19 mg
Right Ventricle Weight/ Tibia Length [7]: 52 ± 5 mg/cm
Final Body Weight (g) [8]: 331 ± 7^# g
Left Ventricle Weight [8]: 936 ± 34 mg
Left Ventricle Weight/ Tibia Length [8]: 240 ± 9 mg/cm
Right Ventricle Weight [8]: 198 ± 6 mg
Right Ventricle Weight/ Tibia Length [8]: 51 ± 2 mg/cm
